Data published in patent US7799809B2, “Carboxamide compounds and their use as calpain inhibitors” (Abbott GmbH & Co. KG, priority 2006, dated 2010).

Key:
Format in all cases: biochemical
cathepsin B = target: T1, cathepsin B (Homo sapiens, UniProt P07858); test: Cathepsin B enzyme inhibition in vitro (kinetic fluorescence assay); details: cathepsin B isolated from human liver vs calpain I
T1 construct: cathepsin B—isolated from human liver (Calbiochem #219362); purchased Calbiochem 219362; host or cells: human liver (tissue-derived)
Procedure, shortened: (§1)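 Cathepsin B (0.25 nM, human liver) with 100 μM Z-Phe-Arg-AMC; L (1 nM, human liver) with 2 μM Z-Phe-Arg-AMC; S (0.5 nM, recombinant) with 20 μM Z-Val-Val-Arg-AMC. pH 6.0 MES buffer, 2.5 mM L-cysteine, room temperature. Kinetic fluorescence (ex 390/em 460 nm); apparent Ki from IC50 by Cheng-Prusoff.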

cathepsin S = target: T2, cathepsin S (Homo sapiens, UniProt P25774); test: Cathepsin S enzyme inhibition in vitro (kinetic fluorescence assay); details: recombinant human cathepsin S vs calpain I
T2 construct: purchased Calbiochem 219343; host or cells: E. coli
Procedure, shortened: as §1

cathepsin L = target: T3, cathepsin L (Homo sapiens, UniProt P07711); test: Cathepsin L enzyme inhibition in vitro (kinetic fluorescence assay); details: cathepsin L isolated from human liver vs calpain I
T3 construct: cathepsin L—isolated from human liver (Calbiochem #219402); purchased Calbiochem 219402; host or cells: human liver (tissue-derived)
Procedure, shortened: as §1

cathepsin K = target: T4, cathepsin K (Homo sapiens, UniProt P43235); test: Cathepsin K enzyme inhibition in vitro (kinetic fluorescence assay); details: cathepsin K activated from recombinant human procathepsin K vs calpain I
T4 construct: purchased Calbiochem 342001; host or cells: E. coli
T4 sequence (P43235 115-329): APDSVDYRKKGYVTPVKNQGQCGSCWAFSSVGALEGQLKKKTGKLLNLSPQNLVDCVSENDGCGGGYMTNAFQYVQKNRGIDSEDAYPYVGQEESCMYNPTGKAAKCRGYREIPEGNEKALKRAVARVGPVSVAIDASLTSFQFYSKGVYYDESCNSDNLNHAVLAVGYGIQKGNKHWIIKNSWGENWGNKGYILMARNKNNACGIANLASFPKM

T2 sequence (P25774 115-331): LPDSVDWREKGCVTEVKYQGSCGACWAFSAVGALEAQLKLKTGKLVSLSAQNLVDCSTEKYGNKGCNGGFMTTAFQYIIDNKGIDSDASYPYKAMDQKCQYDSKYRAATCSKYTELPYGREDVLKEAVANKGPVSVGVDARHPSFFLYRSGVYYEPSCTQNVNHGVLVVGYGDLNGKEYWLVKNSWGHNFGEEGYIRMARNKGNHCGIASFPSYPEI
T3 sequence (P07711 114-333): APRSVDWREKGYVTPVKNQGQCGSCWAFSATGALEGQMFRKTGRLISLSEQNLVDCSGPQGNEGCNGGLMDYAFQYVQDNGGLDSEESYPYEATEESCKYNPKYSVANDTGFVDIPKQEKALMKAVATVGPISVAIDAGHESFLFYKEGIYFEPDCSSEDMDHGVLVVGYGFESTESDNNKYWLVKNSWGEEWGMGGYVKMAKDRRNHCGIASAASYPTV

SMILES | Sel cat. B: Ki(cathepsin B)/Ki(calpain) ratio (cathepsin B) | Sel cat. S: Ki(cathepsin S)/Ki(calpain) ratio (cathepsin S) | Sel cat. L: Ki(cathepsin L)/Ki(calpain) ratio (cathepsin L) | Sel cat. K: Ki(cathepsin K)/Ki(calpain) ratio (cathepsin K)
NC(=O)C(=O)C(Cc1ccc(F)cc1)NC(=O)c1cccnc1-n1ccc(-c2ccccc2OC(F)(F)F)n1 (stereo not shown) [Example 152, N-{3-Amino-1-[(4-fluorophenyl)methyl]-2,3-dioxopropyl}-2-(3-{2-[(trifluoromethyl)oxy]phenyl}-1H-pyrazol-1-yl)pyridine-3-carboxamide] | ++ (++ means a Ki(cathepsin B)/Ki(calpain) ratio of ≧30) | ++ (++ means a Ki(cathepsin S)/Ki(calpain) ratio of ≧100) | ++ (++ means a Ki(cathepsin L)/Ki(calpain) ratio of ≧50) | ++ (++ means a Ki(cathepsin K)/Ki(calpain) ratio of ≧30)
COc1ccc(CC(NC(=O)c2cccnc2-n2ccc(-c3cccc(Cl)c3Cl)n2)C(=O)C(N)=O)cc1 (stereo not shown) [Example 153, N-(3-Aamino-1-{[4-(methyloxy)phenyl]methyl}-2,3-dioxopropyl)-2-[3-(2,3-dichlorophenyl)-1H-pyrazol-1-yl]pyridine-3-carboxamide] | ++ (++ means a Ki(cathepsin B)/Ki(calpain) ratio of ≧30) | ++ (++ means a Ki(cathepsin S)/Ki(calpain) ratio of ≧100) | ++ (++ means a Ki(cathepsin L)/Ki(calpain) ratio of ≧50) | ++ (++ means a Ki(cathepsin K)/Ki(calpain) ratio of ≧30)
NC(=O)C(=O)C(Cc1ccccc1)NC(=O)c1cccnc1-n1ccc(-c2cccc(C(F)(F)F)c2Cl)n1 (stereo not shown) [Example 155, N-[3-Amino-2,3-dioxo-1-(phenylmethyl)propyl]-2-{3-[2-chloro-3-(trifluoromethyl)phenyl]-1H-pyrazol-1-yl}pyridine-3-carboxamide] | ++ (++ means a Ki(cathepsin B)/Ki(calpain) ratio of ≧30) | ++ (++ means a Ki(cathepsin S)/Ki(calpain) ratio of ≧100) | ++ (++ means a Ki(cathepsin L)/Ki(calpain) ratio of ≧50) | ++ (++ means a Ki(cathepsin K)/Ki(calpain) ratio of ≧30)
COc1ccc(CC(NC(=O)c2cccnc2-n2ccc(-c3cccc(F)c3Cl)n2)C(=O)C(N)=O)cc1 (stereo not shown) [Example 157, N-(3-Amino-1-{[4-(methyloxy)phenyl]methyl}-2,3-dioxopropyl)-2-[3-(2-chloro-3-fluorophenyl)-1H-pyrazol-1-yl]pyridine-3-carboxamide] | ++ (++ means a Ki(cathepsin B)/Ki(calpain) ratio of ≧30) | ++ (++ means a Ki(cathepsin S)/Ki(calpain) ratio of ≧100) | ++ (++ means a Ki(cathepsin L)/Ki(calpain) ratio of ≧50) | ++ (++ means a Ki(cathepsin K)/Ki(calpain) ratio of ≧30)
CS(=O)(=O)Nc1cnc(-n2ccc(-c3ccccc3)n2)c(C(=O)NC(Cc2ccccc2)C(=O)C(N)=O)c1 (stereo not shown) [Example 158, N-[3-Amino-2,3-dioxo-1-(phenylmethyl)propyl]-5-[(methylsulfonyl)amino]-2-(3-phenyl-1H-pyrazol-1-yl)pyridine-3-carboxamide] | ++ (++ means a Ki(cathepsin B)/Ki(calpain) ratio of ≧30) | ++ (++ means a Ki(cathepsin S)/Ki(calpain) ratio of ≧100) | ++ (++ means a Ki(cathepsin L)/Ki(calpain) ratio of ≧50) | ++ (++ means a Ki(cathepsin K)/Ki(calpain) ratio of ≧30)
NC(=O)C(=O)C(Cc1ccccc1)NC(=O)c1cccnc1-n1ccc(-c2cccc3cccnc23)n1 (stereo not shown) [Example 160, N-[3-amino-2,3-dioxo-1-(phenylmethyl)propyl]-2-(3-quinolin-8-yl-1H-pyrazol-1-yl)pyridine-3-carboxamide] | ++ (++ means a Ki(cathepsin B)/Ki(calpain) ratio of ≧30) | ++ (++ means a Ki(cathepsin S)/Ki(calpain) ratio of ≧100) | ++ (++ means a Ki(cathepsin L)/Ki(calpain) ratio of ≧50) | ++ (++ means a Ki(cathepsin K)/Ki(calpain) ratio of ≧30)
NC(=O)C(=O)C(Cc1cccc(F)c1)NC(=O)c1cccnc1-n1ccc(-c2ccccc2OC(F)(F)F)n1 (stereo not shown) [Example 162, N-{3-Amino-1-[(3-fluorophenyl)methyl]-2,3-dioxopropyl}-2-(3-{2-[(trifluoromethyl)oxy]phenyl}-1H-pyrazol-1-yl)pyridine-3-carboxamide] | ++ (++ means a Ki(cathepsin B)/Ki(calpain) ratio of ≧30) | ++ (++ means a Ki(cathepsin S)/Ki(calpain) ratio of ≧100) | ++ (++ means a Ki(cathepsin L)/Ki(calpain) ratio of ≧50) | ++ (++ means a Ki(cathepsin K)/Ki(calpain) ratio of ≧30)
NC(=O)C(=O)C(Cc1ccccc1)NC(=O)c1cccnc1-n1ccc(-c2cc(C(F)(F)F)ccc2CN2CCOCC2)n1 (stereo not shown) [Example 163, N-[3-Amino-2,3-dioxo-1-(phenylmethyl)propyl]-2-{3-[2-(morpholin-4-ylmethyl)-5-(trifluoromethyl)phenyl]-1H-pyrazol-1-yl}pyridine-3-carboxamide] | + (+ means 10≦Ki(cathepsin B)/Ki(calpain)<30) | ++ (++ means a Ki(cathepsin S)/Ki(calpain) ratio of ≧100) | + (+ means 30≦Ki(cathepsin L)/Ki(calpain)<50) | + (+ means 10≦Ki(cathepsin K)/Ki(calpain)<30)
NC(=O)C(=O)C(Cc1ccccc1)NC(=O)c1cccnc1-n1ccc(-c2cccc3c2OCC3)n1 (stereo not shown) [Example 164, N-[3-Amino-2,3-dioxo-1-(phenylmethyl)propyl]-2-[3-(2,3-dihydro-1-benzofuran-7-yl)-1H-pyrazol-1-yl]pyridine-3-carboxamide] | + (+ means 10≦Ki(cathepsin B)/Ki(calpain)<30) | ++ (++ means a Ki(cathepsin S)/Ki(calpain) ratio of ≧100) | ++ (++ means a Ki(cathepsin L)/Ki(calpain) ratio of ≧50) | ++ (++ means a Ki(cathepsin K)/Ki(calpain) ratio of ≧30)
NC(=O)C(=O)C(Cc1ccccc1)NC(=O)c1cccnc1-n1ccc(-c2ccccc2OC(F)F)n1 (stereo not shown) [Example 166, N-[3-Amino-2,3-dioxo-1-(phenylmethyl)propyl]-2-(3-{2-[(difluoromethyl)oxy]phenyl}-1H-pyrazol-1-yl)pyridine-3-carboxamide] | + (+ means 10≦Ki(cathepsin B)/Ki(calpain)<30) | ++ (++ means a Ki(cathepsin S)/Ki(calpain) ratio of ≧100) | ++ (++ means a Ki(cathepsin L)/Ki(calpain) ratio of ≧50) | ++ (++ means a Ki(cathepsin K)/Ki(calpain) ratio of ≧30)
NC(=O)C(=O)C(Cc1ccccc1)NC(=O)c1cccnc1-n1ccc(-c2cccc(OC(F)(F)F)c2)n1 (stereo not shown) [Example 168, N-[3-Amino-2,3-dioxo-1-(phenylmethyl)propyl]-2-(3-{3-[(trifluoromethyl)oxy]phenyl}-1H-pyrazol-1-yl)pyridine-3-carboxamide] | + (+ means 10≦Ki(cathepsin B)/Ki(calpain)<30) | ++ (++ means a Ki(cathepsin S)/Ki(calpain) ratio of ≧100) | ++ (++ means a Ki(cathepsin L)/Ki(calpain) ratio of ≧50) | + (+ means 10≦Ki(cathepsin K)/Ki(calpain)<30)
NC(=O)C(=O)C(Cc1ccccc1)NC(=O)c1cccnc1-n1cc2c(n1)-c1ccccc1SC2 (stereo not shown) [Example 173, N-[3-Amino-2,3-dioxo-1-(phenylmethyl)propyl]-2-thiochromeno[4,3-c]pyrazol-2(4H)-ylpyridine-3-carboxamide] | + (+ means 10≦Ki(cathepsin B)/Ki(calpain)<30) | ++ (++ means a Ki(cathepsin S)/Ki(calpain) ratio of ≧100) | ++ (++ means a Ki(cathepsin L)/Ki(calpain) ratio of ≧50) | + (+ means 10≦Ki(cathepsin K)/Ki(calpain)<30)
NC(=O)C(=O)C(Cc1ccccc1)NC(=O)c1cccnc1-n1cc2c(n1)-c1ccccc1S(=O)(=O)C2 (stereo not shown) [Example 174, N-[3-Amino-2,3-dioxo-1-(phenylmethyl)propyl]-2-(5,5-dioxidothiochromeno[4,3-c]pyrazol-2(4H)-yl)pyridine-3-carboxamide] | + (+ means 10≦Ki(cathepsin B)/Ki(calpain)<30) | ++ (++ means a Ki(cathepsin S)/Ki(calpain) ratio of ≧100) | ++ (++ means a Ki(cathepsin L)/Ki(calpain) ratio of ≧50) | + (+ means 10≦Ki(cathepsin K)/Ki(calpain)<30)
